Test results as given in US20030073740A1, “Methods for treatment of lupus erythematosus” (priority 2001, published 2003).
Read-outs that look alike come from different tables or passages of the source.

Tests used:
[1] = biological target: T1, GST-cGB-PDE5 fusion protein (cGMP binding sites of human PDE5A) (Homo sapiens, UniProt O76074); assay: cGMP binding assay with GST-cGB-PDE5 fusion protein; conditions: for competition with cGMP binding to GST-cGB-PDE5 at high concentration: 100 μM compound, cGMP 2 μM
T1 construct: made in house; host or cells: E. coli BL21 (DE3)
Text: RT-PCR method is used to obtain the cGB domain of PDE5 with forward and reverse primers designed from bovine PDE5A cDNA sequence (McAllister-Lucas L. M. et al, J. Biol. Chem. 268, 22863-22873, 1993) and the selection among PDE 1-10 families. 5′-3′, Inc. kits for total RNA followed by oligo (dT) column purification of mRNA are used with HT-29 cells. […] It is then cloned into pGEX-5X-3 glutathione-S-transferase (GST) fusion vector (Pharmacia Biotech )with tac promoter, and EcoR1 and XhoI cut sites. The fusion vector is then transfected into E. Coli BL21 (DE3) bacteria (Invitrogen). The transfected BL21 bacteria is grown to log phase, and then IPTG is added as an inducer. The induction is carried at 20° C. for 24 hrs. The bacteria are harvested and lysed. The soluble cell lysate is incubated with GSH conjugated Sepharose 4B (GSH-Sepharose 4B). The GST-cGB-PDE5 fusion protein can bind to the GSH-Sepharose beads, and the other proteins are washed off from beads with excessive cold PBS.
Then, the mixture is transferred to Brandel MB-24 cell harvester with GF/B as the filter membrane followed by 2 washes with 10 mL of cold 5 mM potassium buffer(pH 6.8). The membranes are then cut out and transferred to scintillation vials followed by the addition of 1 mL of H2O and 6 mL of Ready Safe™ liquid scintillation cocktail to each vial. The vials are counted on a Beckman LS 6500 scintillation counter.
The quenching by filter membrane or other debris are also calibrated.

U937 cells = assay: apoptosis induction of U937 cells (active caspase 3 immunofluorescence); assay type: cell-based; conditions: U937 cells, 24 hours
Method: U937 cells (from ATCC Rockville, Md.) were grown in RPMI media supplemented with 5% FCS, glutamine, antibiotic/antimycotic and sodium pyruvate. Total RNA was isolated from two U937 cultures, one treated with 5 nM TPA for 48 hours and one grown in normal media as listed above, using the Rouche High Pure RNA Isolation Kit (cat# 1 828 665) as per manufacturers protocol. cDNA was then synthesized from the total RNA using GibcoBRL SuperscriptII (Cat # 18064-022) reverse transcriptase as per manufacturers protocol. The resulting cDNA was used as a template for RT-PCR reactions using primer sets specific for PDE2 (forward: […], reverse: […]) or PDE5 (forward: […], reverse: […]). mRNA for PDE2 and 5 were both present in the untreated U937 cells. Upon treatment with TPA, the relative amounts of PDE2 mRNA increased 5 fold. Therefore, U937 cells treated with TPA and driven to differentiate into an activated macrophage like state have elevated levels of PDE2 mRNA (see FIG. 1).
The presence of PDE2 and PDE5 protein within U937 cells was confirmed by indirect immunofluorescence (IIF). U937 cells were cultured as above. Two U937 cultures, one grown in the presence of 5 nM TPA for 48 hours and one grown in normal media were processed. All cultures were collected by centrifugation (Shandon Cytospin, 2 minutes @ 600 rpm) onto poly-L lysine-coated slides and immediately fixed in fresh 3% paraformaldehyde buffered in PBS for 10 minutes. Adherent cultures were grown on coverslips and fixed as above. Cells were permeablized in 0.2% triton-100 for 2 minutes. Slides were blocked with blocking buffer (5% goat serum, 5% glycerol, 1% gelatin from cold water fish skin and 0.04% NaN3 in PBS) for 1 hour at room temperature.
Adherent cells were dislodged by treatment with trypsin EDTA for 5 minutes at 37° C. Cells were then processed for IIF as described above, except that an antibody specific for active caspase 3 was used (as per manufacturer's protocol) instead of antibodies to PDE2 or 5 (Promega Cat. #G7481). The anti-active caspase 3 antibody was diluted 1:200 in blocking buffer and processed according to the manufacturer's protocol. The resulting slides were observed under a fluorescent microscope and a digital images were obtained.
The level of apoptosis in U937 cells was quantified by scoring 500 consecutive cells for the presence of active caspase 3.
The cells were harvested and processed for IIF as described above using an antibody that specifically recognizes active caspase 3. […] Therefore, the inhibition of only PDE4 or PDE5 alone (i.e. without the inhibition of PDE2) is not sufficient to induce apoptosis in U937 cells.

native bovine PDE5 = native bovine PDE5 (Bos taurus, UniProt Q28156); conditions: read-out: Kd of cGMP binding, native bovine PDE5; cited from earlier work
[2] = biological target: T2, COX I (purified cyclooxygenase Type I) (Ovis aries, UniProt P05979); assay: Cyclooxygenase (COX) inhibition, purified COX; assay type: biochemical, ram; conditions: arachidonic acid 100 μM, 2.0 min, 37° C.
T2 construct: The COX was purified from ram seminal vesicles; from tissue; host or cells: ram seminal vesicles
T2 sequence (P05979 25-600): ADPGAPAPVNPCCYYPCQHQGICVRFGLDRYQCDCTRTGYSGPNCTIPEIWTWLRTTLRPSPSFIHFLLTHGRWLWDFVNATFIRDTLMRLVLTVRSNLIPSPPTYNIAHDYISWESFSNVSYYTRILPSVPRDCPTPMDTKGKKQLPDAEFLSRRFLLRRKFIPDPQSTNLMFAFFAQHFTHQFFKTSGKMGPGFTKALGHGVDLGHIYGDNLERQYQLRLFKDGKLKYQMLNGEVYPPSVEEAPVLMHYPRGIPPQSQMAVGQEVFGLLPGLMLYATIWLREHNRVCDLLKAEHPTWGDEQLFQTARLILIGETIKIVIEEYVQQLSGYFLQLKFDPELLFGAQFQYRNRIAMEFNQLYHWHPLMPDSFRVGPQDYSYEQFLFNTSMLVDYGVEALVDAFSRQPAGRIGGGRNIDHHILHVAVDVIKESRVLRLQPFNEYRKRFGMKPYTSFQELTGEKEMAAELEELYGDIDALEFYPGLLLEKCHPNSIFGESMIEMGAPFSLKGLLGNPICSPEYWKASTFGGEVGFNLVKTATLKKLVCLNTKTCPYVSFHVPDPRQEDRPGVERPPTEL
Method: COX catalyzes the formation of prostaglandins and thromboxane by the oxidative metabolism of arachidonic acid. The compound of Example 1 of this invention, as well as a positive control, (sulindac sulfide) were evaluated to determine whether they inhibited purified cyclooxygenase Type I (see Table 1 below).
The compounds of this invention were evaluated for inhibitory effects on purified COX. The COX was purified from ram seminal vesicles, as described by Boopathy, R. and Balasubramanian, J., 239:371-377, 1988. COX activity was assayed as described by Evans, A. T., et al., “Actions of Cannabis Constituents on Enzymes Of Arachidonate Metabolism Anti-Inflammatory Potential,” Biochem. Pharmacol., 36:2035-2037, 1987. Briefly, purified COX was incubated with arachidonic acid (100 μM) for 2.0 min at 37° C. in the presence or absence of test compounds. The assay was terminated by the addition of TCA, and COX activity was determined by absorbance at 530 nm.

T1 sequence (O76074 46-539 limits assumed): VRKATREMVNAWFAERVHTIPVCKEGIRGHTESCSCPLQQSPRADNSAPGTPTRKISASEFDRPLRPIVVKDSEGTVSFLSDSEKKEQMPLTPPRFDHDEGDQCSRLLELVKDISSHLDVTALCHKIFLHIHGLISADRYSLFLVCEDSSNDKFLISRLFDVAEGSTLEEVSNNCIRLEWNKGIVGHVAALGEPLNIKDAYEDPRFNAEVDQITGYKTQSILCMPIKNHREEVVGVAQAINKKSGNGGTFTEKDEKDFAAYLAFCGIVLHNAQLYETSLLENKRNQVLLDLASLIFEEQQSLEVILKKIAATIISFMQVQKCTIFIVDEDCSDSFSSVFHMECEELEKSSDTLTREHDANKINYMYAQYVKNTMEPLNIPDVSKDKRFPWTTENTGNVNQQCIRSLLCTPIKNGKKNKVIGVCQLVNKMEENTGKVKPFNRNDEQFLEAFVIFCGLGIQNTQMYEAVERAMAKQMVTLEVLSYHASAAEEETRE

Compound | competition with cGMP in binding to the cGMP binding sites of GST-cGB-PDE5 ([1]; 3H-cGMP 2 μM) | other results
O=c1ccn([C@@H]2O[C@@H]3COP(=O)(O)O[C@H]3[C@H]2O)c(=O)[nH]1 [cUMP, cyclic UMP] | did not compete | 
O=c1[nH]cnc2c1ncn2[C@@H]1O[C@@H]2COP(=O)(O)O[C@H]2[C@H]1O [Cyclic IMP] |  | competition with cGMP binding to GST-cGB-PDE5 at high concentration [1]: partially compete
COc1ccc(C2CNC(=O)C2)cc1OC1CCCC1 (stereo not drawn) [rolipram, reference compound] |  | levels of apoptosis compared to normal background (active caspase 3) (U937 cells; 0.5 uM): No increase in the levels of apoptosis
CCCCOC1C2OP(=O)(O)OCC2OC1n1cnc2c(=O)[nH]c(N)nc21 (stereo not drawn) [2′-O-butyl-cGMP] | did not compete | 
CCCOc1ccccc1-c1nc2nn[nH]c2c(=O)[nH]1 [zaprinast] | None of the PDE5 inhibitors showed any competition | 
O=C(O)C1CCN(c2nc(NCc3ccc4c(c3)OCO4)c3cc(Cl)ccc3n2)CC1 [Example E4021] | None of the PDE5 inhibitors showed any competition | 
CCCCOC1C2OP(=O)(O)OCC2OC1n1cnc2c(N)ncnc21 (stereo not drawn) [2′-O-butyl-cAMP] | did not compete | 
Nc1nc2c(ncn2[C@@H]2O[C@@H]3COP(=O)(O)O[C@H]3[C@H]2O)c(=O)[nH]1 [cGMP, cyclic 3′,5′-guanosine monophosphate] | specifically bound | Kd ([1]; read-out: Kd of cGMP binding to GST-cGB-PDE5 fusion protein, two cGMP binding sites): 1.6 ± 0.2 µM; Kd (native bovine PDE5): 1.3 µM
Nc1nc2c(nc(Br)n2[C@@H]2O[C@@H]3COP(=O)(O)O[C@H]3[C@H]2O)c(=O)[nH]1 [Example 8-bromo-cGMP, 8-bromo-cGMP] |  | competition with cGMP binding to GST-cGB-PDE5 at high concentration [1]: partially compete
Nc1ccn([C@@H]2O[C@@H]3COP(=O)(O)O[C@H]3[C@H]2O)c(=O)n1 [cCMP, cyclic CMP] | did not compete | 
Nc1ncnc2c1ncn2[C@@H]1O[C@@H]2COP(=O)(O)O[C@H]2[C@H]1O [Cyclic AMP] |  | competition with cGMP in binding to the cGMP binding sites of GST-cGB-PDE5 [1]: did not compete
CC1=C(CC(=O)NCc2ccccc2)c2cc(F)ccc2/C1=C\c1ccncc1 [Example 1, (Z)-5-Fluoro-2-Methyl-(4-Pyridinylidene)-3-(N-Benzyl)-Indenylacetamide] |  | inhibition at 100 µM [2]: < 25%
CCCc1nn(C)c2c(=O)[nH]c(-c3cc(S(=O)(=O)N4CCN(C)CC4)ccc3OCC)nc12 [sildenafil, reference compound] |  | levels of apoptosis compared to normal background (active caspase 3) (U937 cells; 0.3 nM): No increase in the levels of apoptosis
CSc1ccc(/C=C2/C(C)=C(CC(=O)O)c3cc(F)ccc32)cc1 [Sulindac sulfide, sulindac sulfide, reference compound] | None of the PDE5 inhibitors showed any competition | inhibition at 100 µM [2]: 86%
CC1=C(CC(=O)O)c2cc(F)ccc2/C1=C\c1ccc(S(C)(=O)=O)cc1 [exisulind] | None of the PDE5 inhibitors showed any competition | 
